Earlier results as cited in patent US20140127295A1, “COMPOSITIONS, PROCESS OF PREPARATION OF SAID COMPOSITIONS AND METHOD OF TREATING INFLAMMATORY DISEASES” (priority 2011, published 2014).

Assays:
[1] = in vivo
[2] = in mice

SMILES	Tmax [1]	Cmax [1]	T½ [1]	maximum tolerated dose [2]
CCC(C)(C)C(=O)O[C@H]1C[C@@H](C)C=C2C=C[C@H](C)[C@H](CC[C@@H]3C[C@@H](O)CC(=O)O3)[C@H]21 [CW302, (1S,3R,7S,8S,8aR)-8-{2-[(4R)-4-hydroxy-6-oxooxan-2-yl]ethyl}-3,7-dimethyl-1,2,3,7,8,8a-hexahydronaphthalen-1-yl 2,2-dimethylbutanoate]	1.9 h			
CCCc1nn(C)c2c(=O)[nH]c(-c3cc(S(=O)(=O)N4CCN(C)CC4)ccc3OCC)nc12 [CW305, 5-[2-ethoxy-5-(4-methylpiperazine-1-sulfonyl)phenyl]-1-methyl-3-propyl-1H,4H,7H-pyrazolo[4,3-d]pyrimidin-7-one]	1 h	440 ng/mL	4 to 5 h	8.5 mg/kg
